Counter-ions that a name gives are not always drawn.

The target of the first data set is T1, recombinant human beta tryptase (Homo sapiens, UniProt P20231).
T1 construct: made in house; host or cells: yeast cells
T1 sequence (P20231 31-275): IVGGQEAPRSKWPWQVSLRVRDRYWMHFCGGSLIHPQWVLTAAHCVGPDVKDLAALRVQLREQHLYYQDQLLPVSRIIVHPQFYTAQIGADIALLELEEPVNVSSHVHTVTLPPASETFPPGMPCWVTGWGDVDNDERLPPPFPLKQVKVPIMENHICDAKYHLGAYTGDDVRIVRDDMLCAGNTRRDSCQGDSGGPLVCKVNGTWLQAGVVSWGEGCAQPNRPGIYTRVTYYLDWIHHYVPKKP
Kind of data set: beta-Tryptase inhibition, chromogenic enzyme assay (substrate S2366, read at 405 nm). The settings on record: Ki calculated from IC50: Ki=IC50/(1+[Substrate]/Km); 0.5 mM substrate, room temperature; read-out: Tryptase Ki. The data set is classed as biochemical. Summed up:
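Recombinant human beta tryptase (yeast-expressed; native lung enzyme also used), 50 ng/mL final, with 0.5 mM (2×Km) chromogenic substrate S2366; 30 min in the dark, room temperature, read at 405 nm. Compounds at 0.01-10 μM in duplicate for IC50; Ki=IC50/(1+[S]/Km).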
For orientation: Ki means the equilibrium dissociation constant of an inhibitor or competing ligand from its target. For `COCCn1cc(C(=O)N2CCC(c3cc(CN)ccc3F)CC2)c2c(C(=O)O)cccc21` [Example 109, 3-[4-(5-Aminomethyl-2-fluoro-phenyl)-piperidine-1-carbonyl]-1-(2-methoxy-ethyl)-1H-indole-4-carboxylic acid trifluoroacetate], the Ki was 142 nM.
For `COCCn1cc(C(=O)N2CCC(c3cccc(CN)n3)CC2)c2cccc(C)c21` [Example 113, (6-Aminomethyl-3′,4′,5′,6′-tetrahydro-2′H-[2,4]bipyridinyl-1′-yl)-[1-(2-methoxy-ethyl)-7-methyl-1H-indol-3-yl]-methanone dihydrochloride], the Ki was 656 nM.

The data set is the same for the next values; noted with them: Tryptase Ki (nM), Ki calculated from IC50: Ki=IC50/(1+[Substrate]/Km); 0.5 mM substrate, room temperature.
Take `COCCn1cc(C(=O)N2CCC(c3cc(CN)ccc3F)CC2)c2c(C(=O)N3CCOCC3)cccc21.Cl` [Example 59, [3-[4-(5-Aminomethyl-2-fluoro-phenyl)-piperidine-1-carbonyl]-1-(2-methoxy-ethyl)-1H-indol-4-yl]-morpholin-4-yl-methanone hydrochloride]: the Ki is 32 nM.
In the case of `COCCn1cc(C(=O)N2CCC(c3cc(CN)ccc3F)CC2)c2c(C(=O)N3CCCC3)cccc21` [Example 108, [4-(5-Aminomethyl-2-fluoro-phenyl)-piperidin-1-yl]-[1-(2-methoxy-ethyl)-4-(pyrrolidine-1-carbonyl)-1H-indol-3-yl]-methanone hydrochloride], the Ki is 15 nM.
For `COCCn1cc(C(=O)N2CCC(c3cc(CN)ccc3C(F)(F)F)CC2)c2cccc(C)c21` [Example 110, [4-(5-Aminomethyl-2-trifluoromethyl-phenyl)-piperidin-1-yl]-[1-(2-methoxy-ethyl)-7-methyl-1H-indol-3-yl]-methanone hydrochloride], the inhibition constant Ki was 1260 nM.
With `COCCn1cc(C(=O)N2CCC(c3cc(CN)c(F)cc3F)CC2)c2cccc(C)c21` [Example 111, [4-(5-Aminomethyl-2,4-difluoro-phenyl)-piperidin-1-yl]-[1-(2-methoxy-ethyl)-7-methyl-1H-indol-3-yl]-methanone hydrochloride], the Ki was 1020 nM.
`COCCn1cc(C(=O)N2CCC(c3ccc(F)c(CN)c3)CC2)c2cccc(C)c21` [Example 112, [4-(3-Aminomethyl-4-fluoro-phenyl)-piperidin-1-yl]-[1-(2-methoxy-ethyl)-7-methyl-1H-indol-3-yl]-methanone hydrochloride]: the Ki is 998 nM.
With `CCCCOc1ccc(CN)cc1C1CCN(C(=O)c2cn(CCOC)c3c(C)cccc23)CC1` [Example 114, [4-(5-Aminomethyl-2-butoxy-phenyl)-piperidin-1-yl]-[1-(2-methoxy-ethyl)-7-methyl-1H-indol-3-yl]-methanone hydrochloride], the inhibitory constant (Ki) is 526 nM.
On to `COCCn1cc(C(=O)N2CCC(c3cc(CN)ccc3OCCc3ccccc3)CC2)c2cccc(C)c21` [Example 115, [4-(5-Aminomethyl-2-phenethyloxy-phenyl)-piperidin-1-yl]-[1-(2-methoxy-ethyl)-7-methyl-1H-indol-3-yl]-methanone hydrochloride], for which the Ki was 390 nM.
In the case of `COCCn1cc(C(=O)N2CCC(c3cc(F)cc(CN)c3)CC2)c2cccc(C)c21` [Example 116, [4-(5-Aminomethyl-3-fluoro-phenyl)-piperidin-1-yl]-[1-(2-methoxy-ethyl)-7-methyl-1H-indol-3-yl]-methanone hydrochloride], the Ki was 746 nM.
As to `COCCn1cc(C(=O)N2CCC(c3cccc(CN)c3F)CC2)c2cccc(C)c21` [Example 117, [4-(3-Aminomethyl-2-fluoro-phenyl)-piperidin-1-yl]-[1-(2-methoxy-ethyl)-7-methyl-1H-indol-3-yl]-methanone hydrochloride], the Ki is 756 nM.
Take `COCCn1cc(C(=O)N2CCC(c3ccc(Cl)c(CN)c3)CC2)c2cccc(C)c21` [Example 118, [4-(3-Aminomethyl-4-chloro-phenyl)-piperidin-1-yl]-[1-(2-methoxy-ethyl)-7-methyl-1H-indol-3-yl]-methanone hydrochloride]: the Ki is 832 nM.
Turning to `COCCn1cc(C(=O)N2CCC(c3cc(CN)ccn3)CC2)c2cccc(C)c21` [Example 119, (4-Aminomethyl-3′,4′,5′,6′-tetrahydro-2′H-[2,4′]bipyridinyl-1′-yl)-[1-(2-methoxy-ethyl)-7-methyl-1H-indol-3-yl]-methanone hydrochloride], the Ki is 180 nM.
Still for that read-out and setting: as for `COCCn1cc(C(=O)N2CCC(c3cc(CN)ccc3F)CC2)c2c(NC(=O)c3cccc4c3OCC4)cccc21` [Example 120, 2,3-Dihydro-benzofuran-7-carboxylic acid [3-[4-(5-aminomethyl-2-fluoro-phenyl)-piperidine-1-carbonyl]-1-(2-methoxy-ethyl)-1H-indol-4-yl]-amide hydrochloride], the figure is 3 nM; as for `COCCn1cc(C(=O)N2CCC(c3cc(CN)ccc3F)CC2)c2c(NC(=O)c3cc4cccc(C)c4[nH]3)cccc21` [Example 121, 7-Methyl-1H-indole-2-carboxylic acid [3-[4-(5-aminomethyl-2-fluoro-phenyl)-piperidine-1-carbonyl]-1-(2-methoxy-ethyl)-1H-indol-4-yl]-amide dihydrochloride], 99 nM; as for `COCCn1cc(C(=O)N2CCC(c3cc(CN)ccc3F)CC2)c2c(NC(=O)C3CCCN(C)C3)cccc21` (stereo not drawn) [Example 122, 1-Methyl-piperidine-3-carboxylic acid [3-[4-(5-aminomethyl-2-fluoro-phenyl)-piperidine-1-carbonyl]-1-(2-methoxy-ethyl)-1H-indol-4-yl]-amide hydrochloride], 44 nM.
Consider `COCCn1cc(C(=O)N2CCC(c3cc(CN)ccc3F)CC2)c2c(C(=O)NC3CC3)cccc21` [Example 123, 3-[4-(5-Aminomethyl-2-fluoro-phenyl)-piperidine-1-carbonyl]-1-(2-methoxy-ethyl)-1H-indole-4-carboxylic acid cyclopropylamide hydrochloride], for which the Ki was 50 nM.
Regarding `COCCn1cc(C(=O)N2CCC(c3cc(CN)ccc3F)CC2)c2c(NC(=O)c3cnco3)cccc21` [Example 124, Oxazole-5-carboxylic acid [3-[4-(5-aminomethyl-2-fluoro-phenyl)-piperidine-1-carbonyl]-1-(2-methoxy-ethyl)-1H-indol-4-yl]-amide hydrochloride], the Ki is 8 nM.

System in a further data set: not given
Test: not given
Conditions: not given
As a reminder, the melting point is the temperature, or range, at which the solid turns liquid. As to `COCCn1cc(C(=O)N2CCC(c3cc(CN)ccc3F)CC2)c2c(C(=O)N3CCOCC3)cccc21.Cl` [Example 59, [3-[4-(5-Aminomethyl-2-fluoro-phenyl)-piperidine-1-carbonyl]-1-(2-methoxy-ethyl)-1H-indol-4-yl]-morpholin-4-yl-methanone hydrochloride], the melting point lay within 142 to 147 °C.

The next data set deals with β-tryptase.
Test: not given
The settings on record: inhaled; bronchial allergen challenge; cited from earlier work.
Take `NC(=O)[C@@H]1CCCN1C(=O)[C@H](CCCN=C(N)N)NC(=O)c1ccc2ccccc2c1O` [APC-366]: the “Clinical proof-of-concept for asthma” value is listed as “Clinical proof-of-concept”.

Still in this data set, the particulars now being: inhaled; cited from earlier work.
Consider `NC(=O)[C@@H]1CCCN1C(=O)[C@H](CCCN=C(N)N)NC(=O)c1ccc2ccccc2c1O` [APC-366], for which the “development outcome / tolerability” value is reported as “terminated due to bronchial irritation”.

(Values after patent US20120245161A1 (SANOFI, priority 2009, published 2012).)
